Results reported in PMC10272112 (Nature Communications, 2023).
Where “and” joins values, the source holds several entries; their conditions need not be identical. Equal entries are not always repeated.

Key:
A549 cells = assay: CellRox deep red assay for ROS quantification (with or without arsenite); format: cell-based; conditions: sheet 4d
HDAC10 = target: T1, HDAC10 (Homo sapiens, UniProt Q969S8); assay: NanoBRET intracellular target engagement assay; format: cell-based; conditions: HeLa cells
T1 construct: host or cells: HeLa mono-clones, stably expressing
T1 sequence (Q969S8 1-669): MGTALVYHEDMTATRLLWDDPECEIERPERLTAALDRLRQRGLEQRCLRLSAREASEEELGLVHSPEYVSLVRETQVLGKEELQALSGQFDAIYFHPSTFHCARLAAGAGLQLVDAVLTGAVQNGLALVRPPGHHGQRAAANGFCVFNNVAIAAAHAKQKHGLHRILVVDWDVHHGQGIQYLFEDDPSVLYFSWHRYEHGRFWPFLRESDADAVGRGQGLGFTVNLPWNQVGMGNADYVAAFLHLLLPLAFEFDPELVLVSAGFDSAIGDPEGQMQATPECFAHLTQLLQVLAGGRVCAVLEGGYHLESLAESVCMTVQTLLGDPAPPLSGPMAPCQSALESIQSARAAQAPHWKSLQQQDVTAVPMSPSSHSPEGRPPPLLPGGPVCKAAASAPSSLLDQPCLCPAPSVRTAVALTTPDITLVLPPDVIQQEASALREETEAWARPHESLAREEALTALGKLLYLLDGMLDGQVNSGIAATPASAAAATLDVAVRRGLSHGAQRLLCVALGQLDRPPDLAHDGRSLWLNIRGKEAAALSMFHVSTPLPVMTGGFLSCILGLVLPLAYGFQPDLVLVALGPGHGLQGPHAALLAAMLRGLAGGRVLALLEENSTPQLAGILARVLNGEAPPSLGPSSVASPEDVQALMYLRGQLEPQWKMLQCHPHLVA
Description: For the production of transfected HeLa mono-clones stably expressing HDAC-nanoBRET fusion proteins of HDAC10 and HDAC6-catalytic domain 2 (HDAC6CD2), plasmids expressing a fusion of HDAC10 with nanoluciferase were obtained from Promega (N2170). HeLa cells (0.75 × 10^6) were seeded in a 6 cm dish and were transfected with a mix of 10 μg plasmid and 3 μL Fugene in 200 μL OptiMEM after 24 h. The intracellular target engagement assay on HDAC10 and HDAC6CD2 was performed using the NanoBRET™ Target Engagement Intracellular HDAC Assay (Promega N2081 and N2090) as described by the kit manufacturer in a 96-well plate (Corning 3600) format with 2 × 10^4 cells per well and a tracer concentration of 0.3 μM. Inhibitors were dosed with a D300e Digital Dispenser (Tecan). DMSO concentrations were normalized to 0.5% for all wells. After dosing, assay plates were shaken at 800 rpm and incubated at 37 °C for 2 h followed by measurement of 450 nm and 650 nm luminescence (80 nm bandwidth) at room temperature with a CLARIOstar (BMG Labtech) plate reader 2 min after NanoLuc substrate addition.

For `NC(=O)CCCCC1CCSS1` (racemic) [(R/S)-LM, (R/S)-lipoamide], the “ROS (CellRox), relative to DMSO -Ars., Mean” value (A549 cells; R/S-LM +Ars) was 1.413, the “ROS (CellRox), relative to DMSO -Ars., replicate values” (A549 cells; R/S-LM +Ars) was 1.506 and 1.194 and 1.54 and the “ROS (CellRox), relative to DMSO -Ars., Mean” value (A549 cells; R/S-LM -Ars) was 1.131. For the same molecule, the “ROS (CellRox), relative to DMSO -Ars., replicate values” (A549 cells; R/S-LM -Ars) was 1.077 and 0.9596 and 1.357 and the “intracellular binding to HDAC10” value (HDAC10) was “dose-dependent intracellular binding”.
